Patent US20230348369A1 (Cytokinetics, Inc., priority 2020, published 2023)

Biological target: human NAMPT (Homo sapiens, UniProt P43490)
Experiment: Human recombinant enzyme assay (NMN fluorescence biochemical assay, activation of NAMPT)
Settings: Table A, human recombinant NAMPT, NMN formation, 60 min; for EC50: read-out: EC50 Human
How it was run: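 NMN production is detected fluorometrically (Ex 355/Em 460 nm) 40 min after acetophenone, KOH and formic acid derivatization. Reactions ran 60 min at ambient temperature: 6 nM human NAMPT, nicotinamide 150 μM, PRPP 20 μM, ATP 2.5 mM, buffered at pH 7.2 with 50 mM HEPES plus DTT, CHAPS, NaCl and 100 mM MgCl2.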

Sequence of human NAMPT (P43490 whole entry): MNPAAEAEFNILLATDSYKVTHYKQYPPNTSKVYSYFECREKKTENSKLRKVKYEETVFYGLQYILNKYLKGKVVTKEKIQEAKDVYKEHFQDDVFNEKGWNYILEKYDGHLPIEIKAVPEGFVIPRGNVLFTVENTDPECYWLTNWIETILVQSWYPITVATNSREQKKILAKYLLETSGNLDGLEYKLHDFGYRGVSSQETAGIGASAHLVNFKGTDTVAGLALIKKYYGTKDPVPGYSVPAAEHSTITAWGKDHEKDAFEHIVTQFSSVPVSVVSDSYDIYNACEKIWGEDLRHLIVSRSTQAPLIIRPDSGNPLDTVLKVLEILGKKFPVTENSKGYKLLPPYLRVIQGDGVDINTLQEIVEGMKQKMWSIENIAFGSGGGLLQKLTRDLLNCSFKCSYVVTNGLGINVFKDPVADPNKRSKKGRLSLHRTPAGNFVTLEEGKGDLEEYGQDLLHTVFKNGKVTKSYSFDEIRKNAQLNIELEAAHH

AC1.4 Human [µM] | EC50 [µM] | Structure (SMILES)
2.1 | 4.2 | Cc1cc(C(=O)NCC2CC3(C2)CC(NC(=O)NCc2ccc(Cl)cc2)C3)ccn1 (stereo not drawn) [Compound 246, N-((6-(3-(4-chlorobenzyl)ureido)spiro[3.3]heptan-2-yl)methyl)-2-methylisonicotinamide]
2.8 | 7.9 | O=C(NCc1ccc(Cl)cc1)NC1CC2(CC(CNC(=O)c3cn[nH]c3)C2)C1 (stereo not drawn) [Compound 247, N-((6-(3-(4-chlorobenzyl)ureido)spiro[3.3]heptan-2-yl)methyl)-1H-pyrazole-4-carboxamide]
2.6 | 6.1 | O=C(NCc1ccc(Cl)cc1)NC1CC2(CC(CNC(=O)C3CCCC3)C2)C1 (stereo not drawn) [Compound 251, N-((6-(3-(4-chlorobenzyl)ureido)spiro[3.3]heptan-2-yl)methyl)cyclopentanecarboxamide]
2.8 | 9.1 | O=C1CC(C(=O)NCC2CC3(C2)CC(NC(=O)NCc2ccc(Cl)cc2)C3)CCN1 (stereo not drawn) [Compound 252, N-((6-(3-(4-chlorobenzyl)ureido)spiro[3.3]heptan-2-yl)methyl)-2-oxopiperidine-4-carboxamide]
1.5 | 2.3 | CN1CCN(CC2CC3(C2)CC(NC(=O)NCc2ccc(Cl)cc2)C3)C(c2ccccc2)C1 (stereo not drawn) [Compound 254, 1-(4-chlorobenzyl)-3-(6-((4-methyl-2-phenylpiperazin-1-yl)methyl)spiro[3.3]heptan-2-yl)urea]
2.5 | 6.5 | Cc1ccc(C(=O)NC(C)C2CC3(CC(NC(=O)NCc4ccc(Cl)cc4)C3)C2)cn1 (stereo not drawn) [Compound 255, N-(1-(6-(3-(4-chlorobenzyl)ureido)spiro[3.3]heptan-2-yl)ethyl)-6-methylnicotinamide]
8.6 | 59.4 | O=C(NCCCCCC(=O)N1CCOCC1)NCc1ccc(Cl)cc1 [Compound 259, 1-(4-chlorobenzyl)-3-(6-morpholine-6-oxohexyl)urea]
2.0 | 17.5 | CC(C)(C)CN1CCN(C(=O)CCCCCNC(=O)NCc2ccc(Cl)cc2)CC1 [Compound 260, 1-(4-chlorobenzyl)-3-(6-(4-neopentylpiperazin-1-yl)-6-oxohexyl)urea]
2.8 | 42.9 | CC(C)(O)CN1CCN(C(=O)CCCCCNC(=O)NCc2ccc(Cl)cc2)CC1 [Compound 261, 1-(4-chlorobenzyl)-3-(6-(4-(2-hydroxy-2-methylpropyl)piperazin-1-yl)-6-oxohexyl)urea]
0.6 | 4.9 | Cc1ccccc1NC(=O)CCCCCNC(=O)NCc1ccc(Cl)cc1 [Compound 262, 6-(3-(4-chlorobenzyl)ureido)-N-(o-tolyl)hexanamide]
1.0 | 6.7 | Cc1cccc(N(C)C(=O)CCCCCNC(=O)NCc2ccc(Cl)cc2)c1 [Compound 264, 6-(3-(4-chlorobenzyl)ureido)-N-methyl-N-(m-tolyl)hexanamide]
0.8 | 1.6 | CN(C(=O)CCCCCNC(=O)NCc1ccc(Cl)cc1)c1ccncc1 [Compound 265, 6-(3-(4-chlorobenzyl)ureido)-N-methyl-N-(pyridin-4-yl)hexanamide]
0.5 | 1.8 | Cc1ccccc1N(C)C(=O)CCCCCNC(=O)NCc1ccc(Cl)cc1 [Compound 266, 6-(3-(4-chlorobenzyl)ureido)-N-methyl-N-(o-tolyl)hexanamide]
0.7 | 5.1 | CN(Cc1ccccc1)C(=O)CCCCCNC(=O)NCc1ccc(Cl)cc1 [Compound 269, N-benzyl-6-(3-(4-chlorobenzyl)ureido)-N-methylhexanamide]
1.1 | 3.9 | CN(C(=O)CCCCCNC(=O)NCc1ccc(Cl)cc1)c1cccnc1 [Compound 270, 6-(3-(4-chlorobenzyl)ureido)-N-methyl-N-(pyridin-3-yl)hexanamide]
0.9 | 3.7 | CN(C(=O)CCCCCNC(=O)NCc1ccc(Cl)cc1)c1ccccn1 [Compound 271, 6-(3-(4-chlorobenzyl)ureido)-N-methyl-N-(pyridin-2-yl)hexanamide]
1.8 | 7.1 | Cc1ccc(NC(=O)CCCCCNC(=O)NCc2ccc(Cl)cc2)cn1 [Compound 278, 6-(3-(4-chlorobenzyl)ureido)-N-(6-methylpyridin-3-yl)hexanamide]
1.8 | 11.8 | O=C(NCCCCCNC(=O)c1ccccn1)NCc1ccc(Cl)cc1 [Compound 279, N-(5-(3-(4-chlorobenzyl)ureido)pentyl)picolinamide]
0.1 | 3.9 | COc1ccc(CNC(=O)NCCCCCC(=O)N(C)c2ccccc2F)cc1 [Compound 282, N-(2-fluorophenyl)-6-(3-(4-methoxybenzyl)ureido)-N-methylhexanamide]
8.6 | 32.8 | O=C(Cc1cccnc1)NCCCCCNC(=O)NCc1ccc(Cl)cc1 [Compound 283, N-(5-(3-(4-chlorobenzyl)ureido)pentyl)-2-(pyridin-3-yl)acetamide]
3.5 | 9.4 | O=C(CCCCCNC(=O)NCc1ccc(Cl)cc1)Nc1cccc(F)c1 [Compound 285, 6-(3-(4-chlorobenzyl)ureido)-N-(3-fluorophenyl)hexanamide]
1.1 | 7.7 | O=C(NCCCCC1CCN(C(=O)c2cccnc2)CC1)NCc1ccc(Cl)cc1 [Compound 289, 1-(4-chlorobenzyl)-3-(4-(1-nicotinoylpiperidin-4-yl)butyl)urea]

Continued, compound first:

Structure (SMILES) | AC1.4 Human [µM] | EC50 [µM]
Cc1ccc(C(=O)N(C)CC2CC3(C2)CC(NC(=O)NCc2ccc(Cl)cc2)C3)cn1 (stereo not drawn) [Compound 248, N-((6-(3-(4-chlorobenzyl)ureido)spiro[3.3]heptan-2-yl)methyl)-N,6-dimethylnicotinamide] | 5.0 | 6.6
O=C(NCc1ccc(Cl)cc1)NC1CC2(CC(CNC(=O)C3CCOCC3)C2)C1 (stereo not drawn) [Compound 250, N-((6-(3-(4-chlorobenzyl)ureido)spiro[3.3]heptan-2-yl)methyl)tetrahydro-2H-pyran-4-carboxamide] | 1.8 | 7.7
CC(C1CC2(CC(NC(=O)NCc3ccc(Cl)cc3)C2)C1)N1CCN(C)C(=O)C1 (stereo not drawn) [Compound 253, 1-(4-chlorobenzyl)-3-(6-(1-(4-methyl-3-oxopiperazin-1-yl)ethyl)spiro[3.3]heptan-2-yl)urea] | 3.2 | 5.5
O=C(CCCCCNC(=O)NCc1ccc(Cl)cc1)NC1CCCCC1 [Compound 257, 6-(3-(4-chlorobenzyl)ureido)-N-cyclohexylhexanamide] | 2.7 | 17.9
O=C(CCCCCNC(=O)NCc1ccc(Cl)cc1)NC1CCCC1 [Compound 258, 6-(3-(4-chlorobenzyl)ureido)-N-cyclopentylhexanamide] | 3.8 | 23.1
O=C(CCCCCNC(=O)NCc1ccc(Cl)cc1)Nc1ccncc1 [Compound 263, 6-(3-(4-chlorobenzyl)ureido)-N-(pyridin-4-yl)hexanamide] | 1.4 | 10.2
Cc1cccc(CN(C)C(=O)CCCCCNC(=O)NCc2ccc(Cl)cc2)c1 [Compound 267, 6-(3-(4-chlorobenzyl)ureido)-N-methyl-N-(3-methylbenzyl)hexanamide] | 2.0 | 7.9
O=C(CCCCCNC(=O)NCc1ccc(Cl)cc1)Nc1ccccc1F [Compound 272, 6-(3-(4-chlorobenzyl)ureido)-N-(2-fluorophenyl)hexanamide] | 0.9 | 2.6
O=C(CCCCCNC(=O)NCc1ccc(Cl)cc1)Nc1ccccc1-c1ccccc1 [Compound 273, N-([1,1′-biphenyl]-2-yl)-6-(3-(4-chlorobenzyl)ureido)hexanamide] | 0.9 | 0.3
CN(C(=O)CCCCCNC(=O)NCc1ccc(Cl)cc1)c1ccccc1F [Compound 274, 6-(3-(4-chlorobenzyl)ureido)-N-(2-fluorophenyl)-N-methylhexanamide] | 1.9 | 0.3
Cc1ccccc1C(=O)NCCCCCNC(=O)NCc1ccc(Cl)cc1 [Compound 275, N-(5-(3-(4-chlorobenzyl)ureido)pentyl)-2-methylbenzamide] | 1.9 | 11.4
Cc1cccc(C(=O)NCCCCCNC(=O)NCc2ccc(Cl)cc2)c1 [Compound 276, N-(5-(3-(4-chlorobenzyl)ureido)pentyl)-3-methylbenzamide] | 1.5 | 9.5
O=C(NCCCCCNC(=O)c1cccnc1)NCc1ccc(Cl)cc1 [Compound 277, N-(5-(3-(4-chlorobenzyl)ureido)pentyl)nicotinamide] | 3.2 | 6.9
O=C(NCCCCCNC(=O)c1ccccc1F)NCc1ccc(Cl)cc1 [Compound 280, N-(5-(3-(4-chlorobenzyl)ureido)pentyl)-2-fluorobenzamide] | 0.7 | 2.6
Cc1ccc(C(=O)NCCCCCNC(=O)NCc2ccc(Cl)cc2)cn1 [Compound 281, N-(5-(3-(4-chlorobenzyl)ureido)pentyl)-6-methylnicotinamide] | 1.3 | 3.9
O=C(CCCCCNC(=O)NCc1ccc(Cl)cc1)Nc1ccc(F)cc1 [Compound 284, 6-(3-(4-chlorobenzyl)ureido)-N-(4-fluorophenyl)hexanamide] | 2.8 | 4.2
CN(C(=O)CCCCCNC(=O)NCc1ccncc1)c1ccccc1F [Compound 286, N-(2-fluorophenyl)-N-methyl-6-(3-(pyridin-4-ylmethyl)ureido)hexanamide] | 0.2 | 2
